Measurements reported in US5436246A, “Serotonin receptor agents” (priority 1993, dated 1995).
pIC50: −log10 of the molar value. Structures can show the parent of a compound that is named as a salt. Where two headings read alike, the source gives them in different places.

Columns and labels:
[1] = Eide, Neuropharm. 31, 541 (1992); cited from earlier work
[2] = Bielenberg et al., Stroke Supplement IV, 21 (1990); cited from earlier work
[3] = Eur. J. Pharmacol. 144, 223 (1987); 158, 53 (1988); cited from earlier work
[4] = Eur. J. Pharmacol. 180, 339 (1990); 182, 63 (1990); cited from earlier work
[5] = biological target: T1, 5HT1A receptor (Rattus norvegicus, UniProt P19327); experiment: 5HT1A receptor binding affinity (procedure of Gozlan et al.)
T1 sequence (P19327 1-422): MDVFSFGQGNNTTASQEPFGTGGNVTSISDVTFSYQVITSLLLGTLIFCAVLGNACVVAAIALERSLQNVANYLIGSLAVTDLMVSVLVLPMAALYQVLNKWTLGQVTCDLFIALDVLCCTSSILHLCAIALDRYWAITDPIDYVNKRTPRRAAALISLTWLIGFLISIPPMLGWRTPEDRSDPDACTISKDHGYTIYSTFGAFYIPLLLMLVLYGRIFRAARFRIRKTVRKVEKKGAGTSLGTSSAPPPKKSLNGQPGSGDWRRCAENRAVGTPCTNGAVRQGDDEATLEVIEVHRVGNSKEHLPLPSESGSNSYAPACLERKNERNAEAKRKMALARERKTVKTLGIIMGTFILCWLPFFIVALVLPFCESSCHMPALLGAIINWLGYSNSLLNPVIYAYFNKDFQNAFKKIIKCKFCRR
Procedure: In the following examples, the compounds binding affinity for both the 5HT1A receptor and 5HT1D receptors is reported. The compounds affinity for the 5HT1D site was determined by the binding procedure of Peroutka et al as reported in European Journal of Pharmacology, Vol. 163 at pages 133-166 (1989). The compounds affinity for the 5HT1A receptor was determined by the procedure of Gozlan et al., as reported in Nature, Volume 305, at pages 140-142 (1983). Where multiple determinations of the binding affinity have been performed, the average is given followed by the number of determinations in parentheses. Also, the PA2 value for the saphenous vein preparation as described in this application is given, followed by the intrinsic (agonist) activity in parentheses, expressed as a percentage. [drawing 10] […]

[6] = biological target: 5-HT1D receptors (Canis lupus familiaris, UniProt P79250); set-up: species or system dog (canine)
Procedure: In the following examples, the compounds binding affinity for both the 5HT1A receptor and 5HT1D receptors is reported. The compounds affinity for the 5HT1D site was determined by the binding procedure of Peroutka et al as reported in European Journal of Pharmacology, Vol. 163 at pages 133-166 (1989). The compounds affinity for the 5HT1A receptor was determined by the procedure of Gozlan et al., as reported in Nature, Volume 305, at pages 140-142 (1983). Where multiple determinations of the binding affinity have been performed, the average is given followed by the number of determinations in parentheses. Also, the PA2 value for the saphenous vein preparation as described in this application is given, followed by the intrinsic (agonist) activity in parentheses, expressed as a percentage. [drawing 10]
We have used canine saphenous vein for studying 5-HT1D receptors which is similar, although not totally identical, to human coronary 5-HT1D receptors (see Humphrey, P. P. A., Feniuk, W., Perren, M. J., Connor, H. E., Oxford, A. W., Coates, I. H. and Butina, D.: GR43175, a selective agonist for the 5-HT1 -like receptor in dog isolated saphenous vein, Br. J. Pharmacol. 94:1123-1132, 1988; Kaumann, A. J.: Human heart 5-HT receptors, Second international symposium on serotonin, from cell biology to pharmacology and therapeutics, Houston, Sep. 15-18, 1992).
Mongrel dogs weighing 12-18 kg were killed by an intravenous injection of an overdose of sodium pentobarbitol. Saphenous veins were isolated, removed, cleaned of surrounding connective tissue, and cut into helical strips in a dish containing Krebs-Henseleit solution with the following composition in mM: NaCl, 110.0; KCl, 4.8; CaCl2, 2.5; KH2 PO4, 1.2; EDTA(NaEDTA), 0.027; and was constantly bubbled with 95% O2 -5% CO2. Unless otherwise specified, the endothelium of the […] was removed by rubbing with a metal rod. The intactness or absence of functional endothelium was checked by the presence or absence of a relaxant effect of acetycholine (10^-5 M) in phenylephrine-contracted tissues (see Furchgott, R. F. and Zawadzki, J. V.: The obligatory role of endothelial cells in the relaxtion of arterial smooth muscle by acetycholine, Nature 288:373-376, 1980). Each muscle strip (3×30 mm) was set up in a tissue bath at 37° C. and loaded with 2 gram tension. Contractility of the tissues was measured isometrically with a Grass FT03 force-displacement transducer and recorded on a Strip chart recorder. The tissues were allowed to stabilize for 2 hours before the experiment was started, during which time they were washed repeatedly. Tissues were contracted with 3.162×10^-6 M phenylephrine and 40 mM KCl, which produced 60-70% of their maximum contractile responses, to condition the tissue. 5-HT dose response experiment was conducted. Test compounds were then incubated with the tissue before a second 5-HT dose response experiment was performed. Data are expressed as the pA2 value, the negative logarithm of the molar concentration of antagonist which produced a 2 fold shift in ED50 values of 5-HT dose response curves (see Van Rossum, J. M.: Cumulative dose-response curve: Technique for the making of dose-response curves in isolated organs and the evaluation of drug parameters, Arch. Int. Pharmacodyn. Ther. 143:299-330, 1963).

[7] = acetic acid writhing test (analgesic effect); assay type: in vivo; conditions: Mus musculus, sc, 0.5 h; mice, subcutaneous, 30 minutes before acetic acid i.p. (0.25% v/v, 0.4 ml)
Procedure: Eide, Neuropharm. 31, 541 (1992). […] One such model is the acetic acid writhing test. In this test, a group containing from 5-10 mice are administered the test compound subcutaneously. Thirty minutes after administration of the test compound, the mice are administered acetic acid intraperitoneally (0.25 % v/v, 0.4 ml). The mice are then observed for squirming and writhing. Analgesics block this squirming and writhing.

[8] = biological target: T2, 5HT1D receptor (Bos taurus, UniProt F1MGM3); experiment: 5HT1D receptor binding affinity (procedure of Peroutka et al.)
T2 construct: from tissue
Procedure: The compounds affinity for the 5HT1D site was determined by the binding procedure of Peroutka et al as reported in European Journal of Pharmacology, Vol. 163 at pages 133-166 (1989). […] Where multiple determinations of the binding affinity have been performed, the average is given followed by the number of determinations in parentheses.

[9] = fear-potentiated startle test (anxiolytic activity); assay type: in vivo; conditions: rats
Excerpt: Animals were trained and tested for tear-potentiated startle in a modification of the methods reported in Hitchcock and Davis (1991). Briefly, rats first were given a matching session consisting of 30 startle stimuli. […] A training session took place one to two days later in which the rats were given 10 paired trials consisting of a visual conditioned stimulus (a light) immediately followed by an unconditioned stimulus (footshock). The test session took place two days later. The product of Example No. 15 was administered s.c. in the flank and fifteen minutes later, the rats were given startle stimuli in the absence of the conditioned stimulus (baseline startle measurement; Noise-Alone trials) or in the presence of the conditioned stimulus (fear-potentiated startle measurement; Light-Noise trials). Fear-potentiated startle was defined as higher startle in the presence of the conditioned fear stimulus than in its absence.
Statistical analysis was done on the mean startle amplitudes on the Noise-Alone and Light-Noise trials, and the mean Difference scores (Light-Noise minus Noise-Alone means). One-way analysis of variance was run on the Difference scores and on the Noise-Alone scores. Multiple comparison test (Fisher PLSD) were used to compare each dose group to the vehicle control group.

[10] = test system: dorsal raphe nucleus neurons; conditions: Vandermaelen et al.; cited from earlier work
[11] = Peroutka et al.; Saxena et al.; Hamel et al.; cited from earlier work
[12] = early clinical trials; cited from earlier work

T2 sequence (F1MGM3 1-403): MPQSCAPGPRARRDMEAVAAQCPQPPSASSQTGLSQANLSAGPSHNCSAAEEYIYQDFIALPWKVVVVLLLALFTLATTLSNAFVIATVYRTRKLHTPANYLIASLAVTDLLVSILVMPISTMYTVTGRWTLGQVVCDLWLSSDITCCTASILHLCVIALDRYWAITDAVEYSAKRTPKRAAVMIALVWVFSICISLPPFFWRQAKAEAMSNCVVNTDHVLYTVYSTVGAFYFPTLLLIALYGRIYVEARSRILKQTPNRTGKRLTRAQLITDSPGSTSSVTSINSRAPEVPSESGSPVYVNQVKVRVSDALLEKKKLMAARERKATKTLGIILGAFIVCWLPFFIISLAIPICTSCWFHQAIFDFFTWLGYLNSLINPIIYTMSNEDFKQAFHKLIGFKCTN
Chain of 5-HT1D receptors (P79250 whole entry): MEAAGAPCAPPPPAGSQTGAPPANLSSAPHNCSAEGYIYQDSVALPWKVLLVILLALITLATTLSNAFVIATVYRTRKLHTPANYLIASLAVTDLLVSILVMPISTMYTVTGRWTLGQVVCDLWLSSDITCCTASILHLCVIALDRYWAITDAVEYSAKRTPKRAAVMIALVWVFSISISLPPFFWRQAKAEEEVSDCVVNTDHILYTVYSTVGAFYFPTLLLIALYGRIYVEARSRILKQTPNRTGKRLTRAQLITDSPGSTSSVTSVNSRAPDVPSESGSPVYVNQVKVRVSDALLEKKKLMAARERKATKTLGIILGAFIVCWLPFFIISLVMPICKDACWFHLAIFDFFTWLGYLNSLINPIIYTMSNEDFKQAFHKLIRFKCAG

For `CCCN(CCC)C1CCc2cccc(O)c2C1` (stereo not drawn) [8-OH DPAT, 8-hydroxy-2-(di-N-propylamino) tetralin], the analgesic effect [1] is given as “effective as analgesics”, the “neuronal destruction in rodent models of stroke” value (“neuronal destruction” for short) [2] is given as “inhibited or decreased neuronal destruction” and the “effect in rodent models for depression” value [3] is given as “effective in rodent models for depression”. For the same molecule, the “antihypertensive effect in rodent models” value [4] was “effective for the treatment of hypertension in rodent models”.

For `CCCN(CCC)C1Cc2c[nH]c3ccc(OC)c(c23)C1.Cl` (stereo not drawn) [Bay R 1531], the “neuronal destruction” value [2] is listed as “inhibited or decreased neuronal destruction”.

For `Cl.NC(=O)c1cc2c(N3CCN(CCc4ccccc4)CC3)cccc2s1` [Example 9, 4-[4-(2-phenylethyl)-1-piperazinyl]-benzo[b]thiophene-2-carboxamide monohydrochloride], the pIC50 [5] was 9.30, the Kb [6] was 10.2 nM and the ED50 [7] was 0.12 mg/kg. For the same molecule, the pIC50 [8] was 8.80.

For `OCc1cc2c(N3CCN(CCCc4ccccc4)CC3)cccc2s1` [Example 15, 4-[4-(3,phenylpropyl)-1-piperazinyl]-benzo[b]thiophene-2-methanol monohydrochloride], the pIC50 ([5]; average of multiple determinations where number in parentheses is given, read-out: IC50 (5HT1A Binding Affinity)) was 8.74, the ED50 [7] was 1.74 mg/kg and the “decrease of fear-potentiated startle” value ([9]; doses of 2.5, 20.0, and 40.0 mg/kg s.c., p<.05 vs vehicle, Fisher PLSD) was “decreased fear-potentiated startle with statistically significant effects”. The “anxiolytic activity in the fear-potentiated startle test” value ([9]; s.c., 15 minutes before test) was “significant anxiolytic activity”, the “baseline startle reflex (muscle relaxant activity)” value ([9]; s.c., Noise-Alone trials) was “did not decrease the baseline startle reflex” and the pIC50 ([8]; average of multiple determinations where number in parentheses is given, read-out: IC50 (5HT1D Binding Affinity)) was 7.64.

Work on `Cl.NC(=O)c1cc2c(N3CCN(CCc4ccc(Cl)cc4)CC3)cccc2s1` [Example 21, 4-[4-[2-(4-chlorophenyl)ethyl]-1-piperazinyl]-benzo[b]thiophene-2-carboxamide monohydrochloride] yielded a pIC50 [5] of 8.70, an ED50 [7] of 0.05 mg/kg and a pIC50 [8] of 7.85.

In the case of `Cc1ccc(CCN2CCN(c3cccc4sc(C(N)=O)cc34)CC2)cc1` [Example 29, 4-[4-[2-(4-methylphenyl)ethyl]-1-perazinyl]-benzo[b]thiophene-2-carboxamide monohydrochloride], the pIC50 [5] was 9.00, the ED50 [7] was 0.03 mg/kg and the pIC50 [8] was 8.52.

For `O=C1CC2(CCCC2)CC(=O)N1CCCCN1CCN(c2ncccn2)CC1` [buspirone], the raphe cell firing [10] is listed as “inhibit raphe cell firing”.

For `O=C(NCCN1CCN(c2cccc3c2OC[C@H](CO)O3)CC1)c1ccc(F)cc1` [flesinoxan], the “antihypertensive effect in rodent models” value [4] is listed as “effective for the treatment of hypertension in rodent models”.

For `CC1(C)CC(=O)N(CCCCN2CCN(c3ncccn3)CC2)C(=O)C1` [gepirone], the “neuronal destruction” value [2] is given as “inhibited or decreased neuronal destruction”.

In the case of `O=C1c2ccccc2S(=O)(=O)N1CCCCN1CCN(c2ncccn2)CC1` [ipsapirone], the “neuronal destruction” value [2] is given as “inhibited or decreased neuronal destruction”.

For `CNS(=O)(=O)Cc1ccc2[nH]cc(CCN(C)C)c2c1` [sumatriptan], the “antimigraine-like effects in animal models” value [11] is listed as “produce antimigraine-like effects in animal models” and the “termination of acute migraine attacks” value [12] is listed as “terminate acute migraine attacks in early clinical trials”.
